“Also recorded” adds a separate entry of the source.
Key:
[1] = system: human brain microvascular endothelial cells (IHECs); experiment: MG-occludin adduct formation in IHECs (Western blot, immunoprecipitation); format: cell-based; conditions: IHECs in 5 mM glucose exposed to MG for 4 h with 2 mM NAC
[2] = system: blood-brain barrier (BBB); experiment: Blood-brain barrier permeability by Evans Blue extrusion; format: in vivo, mouse; conditions: STZ mice, NAC 3 weeks
[3] = system: platelet-leukocyte aggregates (PLAs); experiment: Platelet-leukocyte aggregate formation in STZ diabetic mice; format: in vivo, mouse; conditions: 5 and 19 week diabetic mice; NAC 2 mM for 2 weeks
Method: Turning to FIGS. 25A-25D, the percent of circulating leukocytes forming aggregates with platelets at 5 weeks of diabetes is shown (FIG. 25A). Aggregate formation between platelets and leukocyte subpopulations include: lymphocytes (FIG. 25B), neutrophils (FIG. 25C) and monocytes (FIG. 25D). Non-diabetic (vehicle-treated (Veh)), diabetic (STZ) and diabetic mice treated with NAC (2 mM for 2 weeks) were assessed. Turning to FIGS. 26A-26D, the percent of circulating leukocytes forming aggregates with platelets at 19 weeks of diabetes is shown (FIG. 26A). Aggregate formation between platelets and leukocyte subpopulations include: lymphocytes (FIG. 26B), neutrophils (FIG. 26C) and monocytes (FIG. 26D). Non-diabetic (vehicle-treated (Veh)), diabetic (STZ) and diabetic mice treated with NAC (2 mM for 2 weeks) were assessed.

[4] = system: STZ-treated diabetic mice, I/R brain injury; experiment: Middle cerebral artery occlusion-reperfusion (MCAoR) brain infarct area in diabetic mice; format: in vivo, mouse; conditions: 2 mM NAC in drinking water 1 or 3 weeks before MCAoR, 45 min ischemia, 24 h reperfusion
Method: Turning now to FIGS. 1A-1C, a brief description concerning the various components of the present invention will now be briefly discussed. As shown, ischemia/reperfusion (I/R) injury in control and diabetic brain was determined using the middle cerebral artery occlusion-reperfusion (MCAoR) model of Koizumi. MCA occlusion was for 45 min and reperfusion for 24 h. Diabetes model were: mice injected with streptozotocin (STZ) or Akita mice lacking the Insulin-2 gene which spontaneously developed diabetes in 4 wks. Results are mean±SE. NT=no treatment; Veh=citrate buffer; Veh+STZ=4 week post STZ. Ak—Akita. The post I/R infarct area is represented by the unstained (white) regions of left brain sections.
Turning to FIGS. 12A-12C, I/R injury in control and diabetic brain was determined using the middle cerebral artery occlusion-reperfusion (MCAoR) model of Koizumi. MCA occlusion was for 45 min and reperfusion for 24 h. Diabetes was induced with streptozotocin (STZ) and stroke was induced in 4-week diabetic mice. NAC (2 mM) was given in drinking water for 3 weeks. Results are mean±SE. Veh=citrate buffer; STZ=4 week post STZ. The post I/R infarct area is represented by the unstained (white) regions of left brain sections after staining with TTC.
Four-week-old male C57BL/6J mice, weighing 18-20 g, were purchased from Jackson Laboratory. […]

[5] = 60 mg/kg/d over 8-75 months in young children; cited from earlier work
[6] = system: brain protein carbonyl contents; experiment: Assay of brain protein carbonyls; format: in vivo, mouse; conditions: 2 week diabetic mice, NAC 1 week
Method: The extent of protein glycation was determined by measuring total protein carbonyl contents. Briefly, the brain homogenate was incubated with 10 mM of 2, 4-dinitro-phenylhydrazine (DNPH) in 2M hydrochloride acid (1:2 volume) for 1 h followed by precipitation with trichloroacetic acid (final concentration 10%). Following centrifugation, the precipitant was washed 3 times with ethanol-ethyl acetate (1:1) to remove free DNPH. The pellets were redissolved in 0.6 ml of 6 M guanidine hydrochloride solution containing 20 mM potassium phosphate (pH=2.3 adjusted with trifluoroacetic acid) at 37° C., and the insoluble materials were removed by centrifugation for 3 min at 11000 g. The absorbance was monitored at 366 nm, and protein carbonyl contents quantified using the extinction coefficient of 22000 M^−1 cm^−1.

CC(=O)N[C@@H](CS)C(=O)O [NAC, N-acetylcysteine]
occludin glycation (MG-occludin adduct) [1]: prevent the formation of MG-occludin adducts; also recorded: prevented
leakage of Evans Blue (BBB permeability) [2]: significantly decreased
platelet-leukocyte aggregate (PLA) formation [3]: effectively normalized
percent infarct area [4]: significantly attenuated; also recorded: protects the diabetic brain against injury induced by I/R
tolerability [5]: well-tolerated
brain protein carbonyl contents [6]: highly effective in attenuating; also recorded: decreased significantly; also recorded: significantly attenuated

— US20180036270A1, “A METHOD OF PROTECTING AGAINST CARBONYL STRESS INDUCED ISCHEMIA-REPERFUSION INJURY IN THE DIABETIC BRAIN VIA ADMINISTRATION OF N-ACETYLCYSTEINE” (Board of Supervisors of Louisiana State University and …, priority 2015, published 2018)
